From US20260049078A1, “DIFLUORO- AND TRIFLUORO-ACETYL HYDRAZIDES AS SELECTIVE HDAC6 INHIBITORS” (ITALFARMACO S.P.A., priority 2022, published 2026)

Key:
recombinant human HDAC1 = recombinant human HDAC1 (Homo sapiens (Human), UniProt Q13547); experiment: Enzyme inhibitory activity assay on HDAC1; assay type: biochemical; details: 120 minutes preincubation at 25° C.
Experimental: For each test compound, 100× concentrated DMSO solutions at 8 doses were prepared and then diluted in assay buffer (25 mM Tris-HCl, pH 8, 130 mM NaCl, 0.05% Tween-20, 10% Glycerol) to obtain 5× concentrated solutions in relation to the final concentrations (typical final concentration range—6.4-200000 nM or 0.18-50000 nM, final DMSO content—1%). Then 10 μL solution of each test compound concentration were placed on a 96-well plate in triplicate and 15 μL of 3.33× concentrated enzyme solution in the assay buffer containing 3.33× concentrated BSA (final BSA concentration 1 mg/mL) and, in case of HDAC6, 3.33× concentrated TCEP (final TCEP concentration—200 μM) were added to each well. After a period of preincubation at 25° C. (30 minutes for HDAC6 and 120 minutes for HDAC1), 25 μL of solution containing the substrate were added. As substrate, FLUOR DE LYS® deacetylase substrate (Enzo Life Sciences, cat: BML-KI104, FdL), FLUOR DE LYS®-Green substrate (Enzo Life Sciences, cat: BML-KI572, FdL_G) or Boc-Lys(Tfa)-AMC (Bachem, cat: 4060676.005, Tfal)—2× concentrated solution in assay buffer were used. Following a reaction period (30 minutes at 25° C.), 50 μL of the development solution consisting of concentrate FLUOR DE LYS® developer I (Enzo Life Sciences, ca: BML-KI105), diluted 200 times in buffer (50 mM Tris-HCl, pH 8, 137 mM NaCl, 2.7 mM KCl, 1 mM MgCl2) plus 2 μM TSA was added and, after 25 minutes at room temperature in the dark, using the Victor 1420 Multilabel Counter Perkin Elmer Wallac instrument, the fluorescence reading was carried out (excitation/emission: 485/535 nM—Fluor de Lys Green, 355/460 nM—Tfal, Fluor de Lys).
Enzymatic activity on recombinant human HDAC6 and HDAC1 was evaluated (Table 2) for each synthesized compound.

SH-SY5Y cells = experiment: In vitro α-tubulin acetylation in undifferentiated SH-SY5Y cells; assay type: cell-based; details: overnight, @1uM
Experimental: SH-SY5Y cells (ATCC, cod. CRL-2266) are plated in optical optimized 96-well black plates (Perkin Elmer, cod. 6055302) at 5000 cells/well in 100 μl/well of growth medium (DMEM/F12 (1:1)+10 mM hepes+100 units/mL of penicillin+100 μg/mL of streptomycin+10% of inactivated Foetal calf serum (FCS, Hyclone)).
After 24 h of seeding, cells are incubated overnight with the selected molecules at 0.1-1-10 μM. ACY1083 and Tubastatin A, at the same doses, are tested as positive controls of α-Tubulin acetylation, while untreated cells are incubated with 0.01% DMSO and indicated as CTRL DMSO.
At the end of the incubation, cells are fixed adding 100 μL/well of formaldehyde 8% in PBS (final formaldehyde concentration 4% in 200 μL/well) directly in the 100 μL/well of medium, for 30 min at RT. The fixing solution is carefully removed, and wells are washed twice with PBS for 10 min each. Fixed cells are kept in PBS at 4° C. until staining.
The day of the staining experiment, the fixed cells are incubated 60 min with the blocking buffer (PBS with 5% FCS+0.3% Triton™ X-100). While blocking, primary antibodies are prepared by diluting 1:200 the α-Tubulin Alexa Fluor 488 Conjugate (Cell Signaling, cod. 5063) antibody and 1:50 Acetyl-α-Tubulin Alexa Fluor 647 Conjugate (Cell Signaling, cod. 81502) antibody in the Antibody Dilution Buffer (PBS with 1% BSA+0.3% Triton™ X-100). Once the blocking solution is aspirated, the diluted primary antibodies are applied and incubated overnight at 4° C. The next day, cells are rinsed twice with PBS (10 min each), incubated 5 min with 300 nM DAPI in PBS, and then rinsed twice with PBS (10 min each). For each treatment, 3 wells are stained.
Images of the stained cells are acquired by means of the IN Cell Analyzer 2500 HS Instrument, using: far red channel for Acetyl-α-Tubulin staining (exposure 0.02 sec), green channel for α-Tubulin staining (exposure 0.02 sec), and blue channel for DAPI (nuclei) staining. For each well, 10 images are acquired.
Images of stained cells are analysed with the InCarta software (Molecular Devices) for obtaining fluorescence intensity considering whole cells. For each treatment, mean values of Cell intensity—Bckg (Cell), for both staining, are obtained using the InCarta raw data by FOV (Field of View). Results are expressed as fold increase of the ratio of acetylated tubulin and total tubulin towards control (CTRL DMSO).

Chain of recombinant human HDAC1 (Q13547 whole entry): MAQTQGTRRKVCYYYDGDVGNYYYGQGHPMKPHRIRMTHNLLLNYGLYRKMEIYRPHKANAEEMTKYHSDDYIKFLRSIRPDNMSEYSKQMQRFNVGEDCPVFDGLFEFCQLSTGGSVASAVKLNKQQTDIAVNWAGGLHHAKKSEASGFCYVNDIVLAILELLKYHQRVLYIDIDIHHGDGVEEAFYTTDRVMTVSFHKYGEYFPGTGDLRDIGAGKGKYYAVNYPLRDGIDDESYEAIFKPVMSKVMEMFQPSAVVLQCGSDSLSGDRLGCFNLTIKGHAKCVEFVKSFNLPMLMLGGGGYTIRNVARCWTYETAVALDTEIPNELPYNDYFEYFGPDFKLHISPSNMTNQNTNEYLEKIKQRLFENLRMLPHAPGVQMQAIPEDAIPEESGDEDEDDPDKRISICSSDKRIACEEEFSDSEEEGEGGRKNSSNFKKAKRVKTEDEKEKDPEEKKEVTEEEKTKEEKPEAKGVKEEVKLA

Row | SMILES | IC50 (recombinant human HDAC1) | TubAc SH-SY5Y cells fold increase of the ratio of acetylated tubulin and total tubulin towards control (SH-SY5Y cells)
1 | FC(F)c1nnc(-c2ccc(Cn3cc(-c4ccc(NC5=NCCN5)cc4)nn3)cc2)o1 [Compound 1-A] | > 100 µM | 2 fold
2 | Nc1nc2ccc(-c3cn(Cc4ccc(-c5nnc(C(F)F)o5)cc4F)nn3)cc2s1 [Compound 2-A] | > 100 µM | 6.2 fold
3 | FC(F)c1nnc(-c2ccc(Cn3cc(-c4ccccc4)nn3)nc2)o1 [Compound 13-A] | > 100 µM | 
4 | Fc1ccccc1-c1cn(Cc2ccc(-c3nnc(C(F)F)o3)cn2)nn1 [Compound 14-A] | > 100 µM | 6.3 fold
5 | FC(F)c1nnc(-c2ccc(Cn3cc(-c4ccccn4)nn3)nc2)o1 [Compound 20-A] | > 100 µM | 
6 | Nc1nc2ccc(-c3cn(Cc4ccc(-c5nnc(C(F)F)o5)cc4)nn3)cc2s1 [Compound 32-A] | > 100 µM | 6.3 fold

Continued, in another order:

Row | IC50 (recombinant human HDAC1) | SMILES | TubAc SH-SY5Y cells fold increase of the ratio of acetylated tubulin and total tubulin towards control (SH-SY5Y cells)
7 | > 100 µM | Nc1nc2ccc(-c3cn(Cc4ccc(-c5nnc(C(F)F)o5)cc4Cl)nn3)cc2s1 [Compound 37-A] | 6 fold
8 | > 100 µM | Nc1nc2ccc(-c3cn(Cc4ccc(-c5nnc(C(F)F)o5)cn4)nn3)cc2s1 [Compound 38-A] | 10 fold
9 | > 100 µM | Nc1nc2ccc(C3CN(Cc4ccc(C(=O)NNC(=O)C(F)F)s4)N=N3)cc2s1 (stereo not shown) [Compound 48-A] | 15.7 fold
